According to patent publication EP3050886A1, “Fluorescent dyes and dye precursors” (Bürkert Werke GmbH, priority 2015, dated 2016):
Entries after “also recorded” stand apart in the source; their conditions may differ.

Assays:
[1] = Long-term stability in anhydrous DMSO (UHPLC-MS/MS); format: physicochemical; details: 120 µM in anhydrous DMSO, room temperature (23 ± 2 °C), absence of light, after 77 days
Procedure: To examine whether the pro-fluorophores 5-POGDA and 5-POGAM could be stored for at least two months in solution at room temperature (23 ± 2 °C) and in the absence of light, they were dissolved in anhydrous DMSO solvent and analysed by liquid chromatography-mass spectrometry. The analysis was performed using an UHPLC-MS/MS system (LC-MS 8030, Shimadzu). 5-POGDA or AM (120 µM) were stored in anhydrous DMSO. A solution of 5-CFDA (20 µM) in acetonitrile stored at -80°C was used as internal reference for HPLC-MS/MS analysis. The solution injected was composed of 5-POGDA or AM (1.2 µM), and 5-CFDA (0,2 µM) in H2O/acetonitrile, ratio 1/1 (V/V).
Data acquisition and analysis were performed using LabSolutions version 5 software. A 1.7 µm Kinetex™ column (50 X 2.1 mm) was used for HPLC. The mobile phase flow rate was fixed at 0.5 ml/min and the following program was applied for the elution: 0-1.2 min, 5-95% B; 1.2-1.4 min, 95% B; 1.4-1.42 min, […] and 1.42-2.8 min, 5% B. Solvent A consisted of 0.05% formic acid in water and solvent B was HPLC grade acetonitrile. 1 µl was injected.
The mass spectrometer was interfaced with the UHPLC system using an electrospray ion source. […] The percentage of remaining test compound relative to t0 was measured using the peak area on the chromatogram.

[2] = system: Bacillus subtilis (B. subtilis) (ATCC 6633); experiment: Bacteria staining test, fluorescence microscopy; format: cell-based; details: viable or dead B. subtilis, Fig. 3d
Procedure: (§1) Escherichia coli (E. coli) (ATCC 8739) and Bacillus subtilis (B. subtilis) (ATCC 6633) strains were routinely grown in Luria Bertani (LB) broth or on LB agar plates for 18h at 37 °C. Waterborne environmental bacteria such as Enterobacter cloacae (E. cloacae), Chryseobacterium indologenes (C. indologenes), Pseudomonas aeruginosa (P. aeruginosa), and E. coli (EC18) were purchased from Eurofins™. Environmental bacteria were grown in LB broth or on casein-peptone soymeal-peptone agar plates for 18h at 37 °C.
(§2) For the staining tests, E. coli (ATCC 8739 or EC18), E. cloacae, C. indologenes, P. aeruginosa and B. subtilis were cultivated in Luria-Bertani (LB) broth until exponential phase at 37°C with shaking at 300 rpm revolutions per minutes (rpm). Bacteria were harvested and washed in sterile phosphate buffer saline solution (PBS) at pH […] by centrifugation at 10000 rpm for 3 min at room temperature (21 ± 2 °C). Then the bacteria were resuspended in PBS at a concentration of 1·10^9 bacteria/ml. Bacteria concentration was calculated according to the turbidity measure at 660 nm (A660nm=1 correspond to bacterial suspension at ∼ 5·10^8 bacteria/ ml).
(§3) Dead bacterial suspensions at 1·10^9 bacteria/ml (negative controls) of these five species of bacteria were prepared individually by addition of 20 µl of bleach containing 2.6 % active chlorine. Bacteria were treated with bleach solution for 15 min. Dead bacteria were washed twice in sterile PBS by centrifugation at 10000 rpm for 3 min at room temperature. The culturability of the negative controls was assessed by plating 100 µl of bacterial suspension onto LB agar or Caso agar and incubating the plates at 37 °C for 72 h.
(§4) Bacteria (100 µl suspension at 1·10^9 bacteria/ml) were stained with 10 µM or 15 µM of pro-fluorophore (5-CFDA, 5-PFDAE, 5-PFDAT, 5-PFDA, 5-COGDA, 5-POGDA or 5-POGAM) in 200 µl of PBS solution containing 0.6 % of glutaraldehyde. Bacteria were incubated at 37 °C for 10 - 60 min with pro-fluorophore in darkness. After bacterial staining, they were washed and resuspended in 100 µl of PBS as described above.
(§5) Staining of the bacterial suspension was observed under a fluorescent microscope. These bacteria were imaged with a Leica DM5500 microscope equipped with FITC filter. […] Images were collected with a 100x objective. Fluorescence intensity of stained bacterial suspension was also measured with FluoroLog®-3 (Horiba Jobin Yvon) spectrofluorometer equipped with sample stirring. Samples were placed in fluorescence grade quartz cuvette having a volume of 1 ml. The excitation wavelength used was 488 nm and emission wavelength used was 517 nm. The same experiment was repeated three times (n = 3).

[3] = system: Chryseobacterium indologenes; experiment: Bacteria staining test, fluorescence microscopy; format: cell-based; details: for fluorescence of stained viable bacteria compared with 5-CFDA: viable C. indologenes; for staining of viable versus dead bacteria: viable or dead C. indologenes, Fig. 3b
Procedure: as §1, §2, §3, §4, §5

Enterobacter cloacae = experiment: Bacteria staining test, fluorescence microscopy; format: cell-based; details: for fluorescence of stained viable bacteria compared with 5-CFDA: viable E. cloacae; for staining of viable versus dead bacteria: viable or dead E. cloacae, Fig. 3a
Procedure: as §1, §2, §3, §4, §5

Pseudomonas aeruginosa = experiment: Bacteria staining test, fluorescence microscopy; format: cell-based; details: for fluorescence of stained viable bacteria compared with 5-CFDA: viable P. aeruginosa; for staining of viable versus dead bacteria: viable or dead P. aeruginosa, Fig. 3c
Procedure: as §1, §2, §3, §4, §5

Citobacter freudii = experiment: Bacteria staining test, fluorescence microscopy (data not shown); format: cell-based
Procedure: as §4, §5
(§6) No fluorescence signal was detected by microscopy analysis with the dead bacteria.

[4] = system: Comamonas testosteroni/alcaligenes; experiment: as above; format: cell-based
Procedure: as §4, §5, §6

Klebsiella oxytoca = experiment: as above; format: cell-based
Procedure: as §4, §5, §6

E. coli (ATCC 8739) = experiment: Labeling of viable E. coli, fluorescence intensity by spectrofluorometer; format: cell-based, Escherichia coli; details: for E. coli staining at 40 µM compared with 5-CFDA or 5-PFDA / concentration range resulting in a saturation process / concentration up to which an increase of viable E. coli fluorescence intensity is obtained: data not shown; for viable E. coli fluorescence intensity relative to 5-CFDA staining: 10 - 15 µM, 30 min at 37 °C, excitation 488 nm, emission 517 nm, Figure 5
Procedure: as §2, §3
[…] Bacteria were incubated at 37 °C for 10 - 60 min with pro-fluorophore in darkness. After bacterial staining, they were washed and resuspended in 100 µl of PBS as described above.
as §5
Viable or dead E. coli (ATCC 8739) were incubated with different pro-fluorophores (10 - 15 µM) for 30 min at 37 °C. After washes, fluorescence of the E. coli suspension was measured with a FluoroLog®-3 spectrofluorometer (excitation wavelength: 488 nm, emission wavelength: 517 nm). Relative rates of viable E. coli fluorescence intensity were calculated by normalizing the difference of viable E. coli fluorescence intensity and dead E. coli fluorescence intensity with 5-CFDA staining.
Viable E. coli (ATCC 8739) were incubated with different pro-fluorophores (15 µM) at 37 °C for 10 - 60 min. After washes, E. coli fluorescence suspension was measured with FluoroLog®-3 spectrofluorometer (excitation wavelength: 488 nm, emission wavelength: 517 nm).

Structure (SMILES) | percentage remaining in the solution [1] | staining of viable versus dead bacteria [2] | fluorescence of stained viable bacteria compared with 5-CFDA [3] | staining of viable versus dead bacteria [3] | fluorescence of stained viable bacteria compared with 5-CFDA (Enterobacter cloacae) | staining of viable versus dead bacteria (Enterobacter cloacae) | fluorescence of stained viable bacteria compared with 5-CFDA (Pseudomonas aeruginosa) | staining of viable versus dead bacteria (Pseudomonas aeruginosa) | staining of viable versus dead bacteria (Citobacter freudii) | staining of viable versus dead bacteria [4] | staining of viable versus dead bacteria (Klebsiella oxytoca) | E. coli staining at 40 µM compared with 5-CFDA or 5-PFDA (E. coli (ATCC 8739)) | viable E. coli fluorescence intensity relative to 5-CFDA staining (E. coli (ATCC 8739)) | concentration range resulting in a saturation process (E. coli (ATCC 8739)) [µM] | concentration up to which an increase of viable E. coli fluorescence intensity is obtained (E. coli (ATCC 8739))
CCCNC(=O)c1ccc2c(c1)C(=O)OC21c2cc(F)c(OC(C)=O)cc2Oc2cc(OC(C)=O)c(F)cc21 [Example 5-POGDA, 2',7'-difluoro-3-oxo-5-(propylcarbamoyl)-3H-spiro[isobenzofuran-1,9'-xanthene]-3',6'-diyl diacetate] | around 18% | stained only viable | brighter fluorescence than 5-CFDA stained bacteria | stained only viable | brighter fluorescence than 5-CFDA stained bacteria | stained only viable | brighter fluorescence than 5-CFDA stained bacteria | stained only viable | The same results were obtained | The same results were obtained | The same results were obtained | stronger E. coli staining than 5-CFDA or 5-PFDA | approximately 6 | 20 to 40 | about 15 µM
CCCNC(=O)c1ccc2c(c1)C(=O)OC21c2cc(F)c(OCOC(C)=O)cc2Oc2cc(OCOC(C)=O)c(F)cc21 [Example 5-POGAM, 2',7'-difluoro-3-oxo-5-(propylcarbamoyl)-3H-spiroisobenzofuran-1,9'-xanthene-3',6'-diyl diacetoxymethyl ether] | ~65% | stained only viable | brighter fluorescence than 5-CFDA stained bacteria | stained only viable | brighter fluorescence than 5-CFDA stained bacteria | stained only viable | brighter fluorescence than 5-CFDA stained bacteria | stained only viable | The same results were obtained | The same results were obtained | The same results were obtained | stronger E. coli staining than 5-CFDA or 5-PFDA | between two and three times higher; also recorded: three times brighter | 20 to 40 | about 15 µM
